These are literature values, as cited in US6767507B1, “Uncomplexed cyclodextrin compositions for odor control” (The Procter & Gamble Company, priority 1998, dated 2004).

Settings in the first data set: not given
Consider `ClC=CC[N+]12CN3CN(CN(C3)C1)C2.[Cl-]` [Dowicil 200, 1-(3-Chlorallyl)-3,5,7-triaza-1-azoniaadamantane chloride], for which the “solubility in water” value is “freely soluble in water”.

Staying with this data set, now noted: in water.
Take `OCCOc1ccccc1` [2-phenoxyethanol]: the water solubility entry is recorded as “about 2.67%”.

`OCCc1ccccc1` [2-phenylethanol]: the water solubility result was “about 2%”.

In the case of `O=[N+]([O-])C1(Br)COCOC1` [Bronidox L, 5-bromo-5-nitro-1,3-dioxane], the water solubility result is “about 0.46%”.

Consider `CC1(C)C(=O)N(CO)C(=O)N1CO` [DMDM hydantoin, 1,3-bis(hydroxymethyl)-5,5-dimethyl-2,4-imidazolidinedione], for which the water solubility entry is “more than 50%”.

For `OCc1ccccc1` [benzyl alcohol], the water solubility entry was “about 4%”.

For `[H]/N=C(\N/C(=N/[H])NCCCCCCNC(=N)NC(=N)Nc1ccc(Cl)cc1)Nc1ccc(Cl)cc1` [chlorhexidine diacetate, 1,1′-hexamethylene bis(5-(p-chlorophenyl)biguanide), reference compound], the water solubility result is reported as “about 1.8%”.

As for `[H]/N=C(\N/C(=N/[H])NCCCCCCNC(=N)NC(=N)Nc1ccc(Cl)cc1)Nc1ccc(Cl)cc1` [chlorhexidine digluconate, 1,1′-hexamethylene bis(5-(p-chlorophenyl)biguanide), reference compound], the water solubility entry is “about 70%”.

Consider `CC(C)(O)C(Cl)(Cl)Cl` [chlorobutanol, 1,1,1-Trichloro-2-methylpropan-2-ol], for which the water solubility result is recorded as “about 0.8%”.

Take `[Na+].[O-][n+]1ccccc1[S-]` [sodium pyrithione]: the water solubility entry is given as “about 50%”.
